Format in all cases: cell-based, human
Experiment [1] relates to KB cells. Put plainly: MTT assay, phosphatase-responsive liposomes. Particulars: free DOX, ALP status not stated. As for the experimental part: In the study of the phosphatase-responsive liposomes, KB cells (2×10^4 cells per well) were seeded on a 96 well plate in DMEM with 10% FBS at 37° C. for 20 hours. Then, the medium was replaced by the MEM medium (without FBS) containing DOX liposome, 3-MDL, 4-MDL, 5-MDL, 6-MDL, 7-MDL or free DOX, with or without ALP (50 U/ml), and then incubated at 37° C. for 20 hours. The medium was further replaced to MEM with 10% FBS for another 20 hour incubation at 37° C. 20 μl of MTT stock solution (5 mg/ml in PBS) was added to each well incubated at 37° C. for 2 hours, then removed 170 μl of culture medium followed by the addition of 200 μl of DMSO to each well to dissolve the purple formazan product at 37° C. on a 120 rpm reciprocal shaker for 10 minutes. The absorbance of the formazan product in DMSO solution at 540 nm was measured by plate reader to estimate cellular viability.

In experiment [2] the test system is KB cells. The experiment is described as follows: Endogenous ALP-induced liposomal DOX release by flow cytometer. Particulars: 25 μM, 20 hours, data not shown. As for the experimental part: The cell solution (100 μl) were diluted to 1 ml PBS for flow cytometry analysis.
The test system of experiment [3] is KB cells. The experiment is described as follows: MTT assay, photo-responsive liposomes. Particulars: DOX apparent concentration, 40 hours incubation. As for the experimental part: Then, the medium was replaced by the MEM medium (without FBS) containing free DOX, or the MEM medium (without FBS) containing DDL or MDL, in the presence or absence of light irradiation (5 mW/cm^2, 4 minutes), and then incubated at 37° C. for additional 20 hours. The medium was further replaced to MEM with 10% FBS for another 20 hours incubation at 37° C. 20 μl of MTT stock solution (5 mg/ml in PBS) was added to each well incubated at 37° C. for 2 hours, then removed 170 μl of culture medium followed by the addition of 200 μl of DMSO to each well to dissolve the purple formazan product at 37° C. on a 120 rpm reciprocal shaker for 10 minutes. The absorbance of the formazan product in DMSO solution at 540 nm was measured by plate reader so as to estimate cellular viability.

Values joined by “and” are separate entries in the source; they are usually repeats but may differ in a detail not shown here. Equal entries are not always repeated.

For `COc1cccc2c1C(=O)c1c(O)c3c(c(O)c1C2=O)C[C@@](O)(C(=O)CO)C[C@@H]3O[C@H]1C[C@H](N)[C@H](O)[C@H](C)O1` [DOX, doxorubicin], the IC50 in the experiment with KB cells [1] was 3000 nM; with KB cells [3] (UV (irradiated 4 minutes)), 3000 nM and ~3000 nM; in the experiment with KB cells [3] (dark (non-irradiated)), 700 nM and ~700 nM. Besides, the “DOX uptake (cellular DOX fluorescence)” value in the experiment with KB cells [2] worked out at 100%.

Usually IC50 stands for the concentration that inhibits the measured activity by half.

For the origin of these results see patent US11771651B2, “Liposomes and uses thereof” (Academia Sinica, priority 2018, dated 2023).
